According to publication PMC6107497:

Experiment: Pd(II)-catalysed intramolecular ortho C(sp2)-H olefination (oxidative Heck-type aryl-alkenyl C-C bond) of peptide aryl/benzyl/thienyl sulfonamides with pendant acrylate or unactivated terminal alkene; Pd(OAc)2 10 mol%, AgOAc 2.0 equiv
Conditions: 1,2-dichloroethane (DCE), 50.0 mM, 80.0 °C, 24.0 h

COC(=O)[C@@H]1COC(=O)C=Cc2ccccc2CS(=O)(=O)N[C@@H](C(C)(C)C)C(=O)NCC(=O)NCC(=O)N1 [PhCH2SO2-tLeu-Gly-Gly-Ser(O-acryloyl)-OMe]
ring closure, isolated yield (from C=CC(=O)OC[C@H](NC(=O)CNC(=O)CNC(=O)[C@@H](NS(=O)(=O)Cc1ccccc1)C(C)(C)C)C(=O)OC, 20-membered ring): 45%

COC(=O)[C@@H]1COC(=O)C=Cc2ccccc2CS(=O)(=O)N[C@@H](C(C)(C)C)C(=O)N1 [PhCH2SO2-tLeu-Ser(O-acryloyl)-OMe]
ring closure, isolated yield (from C=CC(=O)OC[C@H](NC(=O)[C@@H](NS(=O)(=O)Cc1ccccc1)C(C)(C)C)C(=O)OC, 14-membered ring): 52%

COC(=O)[C@@H]1Cc2ccc(cc2)OC(=O)C=Cc2ccccc2CS(=O)(=O)N[C@@H](C(C)(C)C)C(=O)NCC(=O)N2CCC[C@H]2C(=O)N1 [PhCH2SO2-tLeu-Gly-Pro-Tyr(O-acryloyl)-OMe]
ring closure, isolated yield (from C=CC(=O)Oc1ccc(C[C@H](NC(=O)[C@@H]2CCCN2C(=O)CNC(=O)[C@@H](NS(=O)(=O)Cc2ccccc2)C(C)(C)C)C(=O)OC)cc1, 24-membered ring): 72%

COC(=O)[C@@H]1COC(=O)C=Cc2ccccc2CS(=O)(=O)N[C@@H](C(C)(C)C)C(=O)NCC(=O)NCC(=O)NCC(=O)N1 [PhCH2SO2-tLeu-Gly-Gly-Gly-Ser(O-acryloyl)-OMe]
ring closure, isolated yield (from C=CC(=O)OC[C@H](NC(=O)CNC(=O)CNC(=O)CNC(=O)[C@@H](NS(=O)(=O)Cc1ccccc1)C(C)(C)C)C(=O)OC, 23-membered ring): 34%

COC(=O)[C@@H]1COC(=O)C=Cc2ccccc2CS(=O)(=O)N[C@@H](C(C)(C)C)C(=O)NCC(=O)N1 [PhCH2SO2-tLeu-Gly-Ser(O-acryloyl)-OMe]
ring closure, isolated yield (from C=CC(=O)OC[C@H](NC(=O)CNC(=O)[C@@H](NS(=O)(=O)Cc1ccccc1)C(C)(C)C)C(=O)OC, 17-membered ring): 58%

COC(=O)[C@@H]1COC(=O)C=Cc2ccsc2S(=O)(=O)N[C@@H](C(C)(C)C)C(=O)NCC(=O)N2CCC[C@H]2C(=O)N1 [(thiophene-2-SO2)-tLeu-Gly-Pro-Ser(O-acryloyl)-OMe]
ring closure, isolated yield (from C=CC(=O)OC[C@H](NC(=O)[C@@H]1CCCN1C(=O)CNC(=O)[C@@H](NS(=O)(=O)c1cccs1)C(C)(C)C)C(=O)OC, 19-membered ring): 59%

COC(=O)[C@@H]1COC(=O)CCC=Cc2ccccc2CS(=O)(=O)N[C@@H](C(C)(C)C)C(=O)NCC(=O)N1 [PhCH2SO2-tLeu-Gly-Ser(O-pent-4-enoyl)-OMe]
ring closure, isolated yield (from C=CCCC(=O)OC[C@H](NC(=O)CNC(=O)[C@@H](NS(=O)(=O)Cc1ccccc1)C(C)(C)C)C(=O)OC, 19-membered ring): 53%

COC(=O)[C@@H]1COC(=O)C=Cc2ccsc2S(=O)(=O)N[C@@H](COC(C)(C)C)C(=O)NCC(=O)N2CCC[C@H]2C(=O)N1 [(thiophene-2-SO2)-Ser(tBu)-Gly-Pro-Ser(O-acryloyl)-OMe]
ring closure, isolated yield (from C=CC(=O)OC[C@H](NC(=O)[C@@H]1CCCN1C(=O)CNC(=O)[C@H](COC(C)(C)C)NS(=O)(=O)c1cccs1)C(=O)OC, 19-membered ring): 53%

COC(=O)[C@@H]1Cc2ccc(cc2)OCC=Cc2ccccc2S(=O)(=O)N[C@@H](C(C)(C)C)C(=O)NCC(=O)N2CCC[C@H]2C(=O)N1 [PhSO2-tLeu-Gly-Pro-Tyr(O-allyl)-OMe]
ring closure, isolated yield (from C=CCOc1ccc(C[C@H](NC(=O)[C@@H]2CCCN2C(=O)CNC(=O)[C@@H](NS(=O)(=O)c2ccccc2)C(C)(C)C)C(=O)OC)cc1, 23-membered ring): 61%

COC(=O)[C@@H]1COC(=O)C=Cc2ccccc2S(=O)(=O)N[C@@H](C(C)(C)C)C(=O)NCC(=O)N2CCC[C@H]2C(=O)N1 [PhSO2-tLeu-Gly-Pro-Ser(O-acryloyl)-OMe]
ring closure, isolated yield (from C=CC(=O)OC[C@H](NC(=O)[C@@H]1CCCN1C(=O)CNC(=O)[C@@H](NS(=O)(=O)c1ccccc1)C(C)(C)C)C(=O)OC, 19-membered ring): 67%
